Target: T1, AR protein (Homo sapiens, UniProt P10275, T878A)
T1 construct: host or cells: LNCaP FGC
T1 sequence (P10275 1-920 T878A): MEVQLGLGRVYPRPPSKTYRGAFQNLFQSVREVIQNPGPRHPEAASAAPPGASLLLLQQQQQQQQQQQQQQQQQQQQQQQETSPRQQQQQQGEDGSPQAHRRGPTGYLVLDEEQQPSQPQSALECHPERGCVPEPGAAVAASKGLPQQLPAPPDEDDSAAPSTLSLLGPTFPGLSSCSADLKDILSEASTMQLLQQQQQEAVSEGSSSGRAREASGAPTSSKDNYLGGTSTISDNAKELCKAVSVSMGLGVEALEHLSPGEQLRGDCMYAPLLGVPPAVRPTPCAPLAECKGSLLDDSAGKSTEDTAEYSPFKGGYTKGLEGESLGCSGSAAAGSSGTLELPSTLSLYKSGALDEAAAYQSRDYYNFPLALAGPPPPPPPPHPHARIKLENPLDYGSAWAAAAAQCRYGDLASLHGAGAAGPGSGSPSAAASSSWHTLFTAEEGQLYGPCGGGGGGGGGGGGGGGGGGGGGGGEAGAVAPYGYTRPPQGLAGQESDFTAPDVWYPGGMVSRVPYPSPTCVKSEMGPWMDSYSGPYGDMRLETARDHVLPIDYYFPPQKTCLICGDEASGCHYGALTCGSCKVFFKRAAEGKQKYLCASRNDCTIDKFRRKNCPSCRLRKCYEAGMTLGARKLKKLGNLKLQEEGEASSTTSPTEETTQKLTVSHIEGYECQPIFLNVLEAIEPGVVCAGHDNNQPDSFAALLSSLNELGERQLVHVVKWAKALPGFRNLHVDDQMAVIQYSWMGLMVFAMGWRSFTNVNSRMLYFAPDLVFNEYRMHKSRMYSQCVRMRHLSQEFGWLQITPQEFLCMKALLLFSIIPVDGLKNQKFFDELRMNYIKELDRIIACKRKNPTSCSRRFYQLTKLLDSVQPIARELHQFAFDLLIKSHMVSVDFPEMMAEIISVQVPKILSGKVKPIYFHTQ
Assay: AR protein degradation in LNCaP cells (Western blot)
Type: cell-based
Details: 8 hours; for Degradation of AR protein in LNCaP cells, 10 nM (%) / percent AR protein degradation at a fixed concentration at 0.01 µM: 10 nM; for Degradation of AR protein in LNCaP cells, 100 nM (%) / percent AR protein degradation at a fixed concentration at 0.1 µM: 100 nM
In short: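 LNCaP cells exposed to compound or solvent control for 8 h, lysed in RIPA, protein normalized by BCA. AR detected by SDS-PAGE/Western blot with infrared imaging; band grayscale normalized to GAPDH to calculate AR degradation rate.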

Compound	Degradation of AR protein in LNCaP cells, 10 nM (%)	Degradation of AR protein in LNCaP cells, 100 nM (%)	percent AR protein degradation at a fixed concentration at 0.01 µM [%]	percent AR protein degradation at a fixed concentration at 0.1 µM [%]
COc1cc(O[C@H]2C(C)(C)[C@H](NC(=O)c3ccc(N4CCC(C)(CN5CCC6(CC5)COc5c6ccc(C(=O)N[C@H]6CCC(=O)NC6=O)c5F)CC4)cc3)C2(C)C)ccc1C#N [A-P-85, 1'-((1-(4-(((1r,3r)-3-(4-cyano-3-methoxyphenoxy)-2,2,4,4-tetramethylcyclobutyl)carbamoyl)phenyl)-4-methylpiperidin-4-yl)methyl)-N-((S)-2,6-dioxopiperidin-3-yl)-7-fluoro-2H-spiro[benzofuran-3,4'-piperidin]-6-carboxamide]	7	40	–	–
(S)-3-((1-(4-(((S)-2-(3-chloro-4-cyanophenyl)-3-methyl-2,8-diazaspiro[4.5]decan-8-yl)phenyl)piperidin-4-yl)methyl)-N-(((S)-2,6-dioxopiperidin-3-yl)-1,2,3,4,4a,5-hexahydrobenzo[b]pyrazi no[1,2-d][1,4]oxazine-8-carboxamide [A-P-57]	39	76	–	–
CC1(C)[C@H](NC(=O)c2ccc(N3CCC(CN4CCC5(CCc6cc(C(=O)N[C@H]7CCC(=O)NC7=O)c(F)cc6O5)CC4)CC3)nc2)C(C)(C)[C@H]1Oc1ccc(C#N)c(Cl)c1 [A-P-50, 1'-((1-(5-(((1R,3R)-3-(3-chloro-4-cyanophenoxy)-2,2,4,4-tetramethylcyclobutyl)carbamoyl)pyridin-2-yl)piperidin-4-yl)methyl)-N-((S)-2,6-dioxopiperidin-3-yl)-7-fluorospiro[chroman-2,4'-piperidin]-6-carboxamide]	73	91	–	–
COc1cc(O[C@H]2C(C)(C)[C@H](NC(=O)c3ccc(N4CCC(CN5CCC6(CCc7cc(F)c(C(=O)N[C@H]8CCC(=O)NC8=O)cc7O6)CC5)CC4)cc3)C2(C)C)ccc1C#N [A-P-39]	22	39	–	–
COc1cc(O[C@H]2C(C)(C)[C@H](NC(=O)c3ccc(N4CCC(CN5CCN6c7ccc(C(=O)N[C@H]8CCC(=O)NC8=O)cc7OC[C@@H]6C5)CC4)cc3)C2(C)C)ccc1C#N [A-P-67]	55	85	–	–
COc1cc(O[C@H]2C(C)(C)[C@H](NC(=O)c3ccc(N4CCC(CN5CCC6(CCc7cc(C(=O)N[C@H]8CCC(=O)NC8=O)c(F)cc7O6)CC5)CC4)cc3)C2(C)C)ccc1C#N [A-P-30]	41	78	–	–
COc1cc(O[C@H]2C(C)(C)[C@H](NC(=O)c3ccc(N4CCC(C)(CN5CCC6(CCc7cc(C(=O)N[C@H]8CCC(=O)NC8=O)c(F)cc7O6)CC5)CC4)nc3)C2(C)C)ccc1C#N [A-P-49, 1'-((1-(5-(((1R,3R)-3-(4-cyano-3-methoxyphenoxy)-2,2,4,4-tetramethylcyclobutyl)carbamoyl)pyridin-2-yl)-4-methylpiperidin-4-yl)methyl)-N-((S)-2,6-dioxopiperidin-3-yl)-7-fluorospiro[chroman-2,4'-piperidin]-6-carboxamide]	48	62	–	–
Cn1c(=O)n(C2CCC(=O)NC2=O)c2ccc3c(c21)OCC31CCN(CC2CCN(c3ccc(C(=O)N[C@H]4CC[C@H](Oc5ccc(C#N)c(Cl)c5)CC4)nn3)CC2)CC1 (stereo partly shown) [A-P-24]	–	–	49	29
COc1cc(O[C@H]2C(C)(C)[C@H](NC(=O)c3ccc(N4CCC5(CC4)CC(N4CCC6(CC4)COc4cc7c(cc46)n(C)c(=O)n7C4CCC(=O)NC4=O)C5)cc3)C2(C)C)ccc1C#N (relative stereo) [A-P-21]	52	55	–	–
Cn1c(=O)n(C2CCC(=O)NC2=O)c2cc3c(cc21)C1(CCN(CC2CCN(c4ccc(C(=O)N[C@H]5CC[C@H](Oc6ccc(C#N)c(Cl)c6)CC5)nn4)CC2)CC1)CO3 (stereo partly shown) [A-P-10]	–	–	47	5
COc1cc(O[C@H]2C(C)(C)[C@H](NC(=O)c3ccc(N4CCC(F)(CN5CCC6(CC5)COc5c6ccc(C(=O)N[C@H]6CCC(=O)NC6=O)c5F)CC4)cc3)C2(C)C)ccc1C#N [A-P-84]	-6	33	–	–
(R)-3-((1-(4-(((S)-2-(3-chloro-4-cyanophenyl)-3-methyl-2,8-diazaspiro[4.5]decan-8-yl)phenyl)piperidin-4-yl)methyl)-N-(((S)-2,6-dioxopiperidin-3-yl)-1,2,3,4,4a,5-hexahydrobenzo[b]pyrazi no[1,2-d][1,4]oxazine-8-carboxamide [A-P-58]	63	87	–	–
Cn1c(=O)n(C2CCC(=O)NC2=O)c2cc3c(cc21)C1(CCN(C2CC4(CCN(c5ccc(C(=O)N[C@H]6CC[C@H](Oc7ccc(C#N)c(Cl)c7)CC6)nn5)CC4)C2)CC1)CO3 (relative stereo) [A-P-12, N-((1r,4r)-4-(3-chloro-4-cyanophenoxy)cyclohexy 1)-6-(2-(3-(2,6-dioxopiperidin-3-yl)-1-methyl-2-oxo-2,3-dihydro-1H,6H-spiro[benzofuro[5,6-d]imidazole-7,4'-piperidin]-1'-yl)-7-azaspiro[3.5]nonan-7-yl)pyridazine-3-carboxamide]	56	9	–	–
COc1cc(O[C@H]2C(C)(C)[C@H](NC(=O)c3ccc(N4CCC(CN5CC6(CCC7(CC6)COc6c7ccc7c6CN(C6CCC(=O)NC6=O)C7=O)C5)CC4)cc3)C2(C)C)ccc1C#N (relative stereo) [A-P-3]	64	65	–	–
N#Cc1ccc(O[C@H]2CC[C@H](NC(=O)c3ccc(N4CCC(N5CC6(CCC7(CC6)COc6c7ccc7c6CN(C6CCC(=O)NC6=O)C7=O)C5)CC4)nn3)CC2)cc1Cl (relative stereo) [A-P-1, N-((1r,4r)-4-(3-chloro-4-cyanophenoxy)cyclohexyl)-6-(4-(7'-(2,6-dioxopiperidin-3-yl)-6'-oxo-7',8'-dihydro-2'-H,6'-H-dihydro[azetidine-3,1'-cyclohexane-4',3"-furo[2,3-e]isoindol]-1-yl)piperidin-1-yl)pyridazine-3-carboxamide]	66	48	–	–
COc1cc(O[C@H]2CC[C@H](NC(=O)c3ccc(N4CCC(CN5CCC6(CC5)COc5c6ccc6c5n(C)c(=O)n6C5CCC(=O)NC5=O)CC4)nn3)CC2)ccc1C#N (stereo partly shown) [A-P-22]	–	–	48	25
COc1cc(O[C@H]2C(C)(C)[C@H](NC(=O)c3ccc(N4CCC(C)(CN5CC6(CCC7(CC6)COc6c7ccc7c6CN(C6CCC(=O)NC6=O)C7=O)C5)CC4)cc3)C2(C)C)ccc1C#N (relative stereo) [A-P-4]	74	83	–	–
COc1cc(O[C@H]2C(C)(C)[C@H](NC(=O)c3ccc(N4CCC(C)(CN5CCC6(CCc7cc(C(=O)N[C@H]8CCC(=O)NC8=O)c(F)cc7O6)CC5)CC4)cn3)C2(C)C)ccc1C#N [A-P-43, 1'-((1-(6-(((1r,3r)-3-(4-cyano-3-methoxyphenoxy)-2,2,4,4-tetramethylcyclobutyl)carbamoyl)pyridin-3-yl)-4-methylpiperidin-4-yl)methyl)-N-((S)-2,6-dioxopiperidin-3-yl)-7-fluorospiro[chroman-2,4'-piperidin]-6-carboxamide]	8	35	–	–
CC1(C)[C@H](NC(=O)c2ccc(N3CCC(CN4CCC5(CCc6cc(C(=O)N[C@H]7CCC(=O)NC7=O)c(F)cc6O5)CC4)CC3)nc2)C(C)(C)[C@H]1Oc1ccc(C#N)c(C(F)(F)F)c1 [A-P-45, 1'-((1-(5-(((1R,3R)-3-(4-cyano-3-(trifluoromethyl)phenoxy)-2,2,4,4-tetramethylcyclobutyl)carbamoyl)pyridin-2-yl)piperidin-4-yl)methyl)-N-((S)-2,6-dioxopiperidin-3-yl)-7-fluorospiro[chroman-2,4'-piperidin]-6-carboxamide]	52	85	–	–
COc1cc(O[C@H]2C(C)(C)[C@H](NC(=O)c3ccc(N4CCC(CN5CCN6c7ccc(N[C@H]8CCC(=O)NC8=O)cc7OC[C@@H]6C5)CC4)cc3)C2(C)C)ccc1C#N [A-P-100]	1	48	–	–
